Experimental data taken from ChEMBL document CHEMBL5338761 (J Med Chem, 2023).
Values belong to the compound of their own block, whether it stands above or below them.

Experiments:
DNA polymerase theta [1] = target: T1, DNA polymerase theta (Homo sapiens, UniProt O75417); assay: Inhibition of POLQ PD (unknown origin) (1819 to 2590 residues) by fluorescence based analysis
DNA polymerase theta [2] = target: T1, DNA polymerase theta; assay: Inhibition of POLQ (unknown origin); format: single protein
DNA polymerase theta [3] = target: T1, DNA polymerase theta; assay: Inhibition of N-terminal/C-termianl Flag-tagged POLQ (unknown origin) (2 to 2590 residues) expressed in baculovirus incubated for 30 mins by fluorescence based analysis
DNA polymerase theta [4] = target: T1, DNA polymerase theta; assay: Inhibition of POLQ (unknown origin) incubated for 15 mins in presence of ATP and NADPH by absorbance based analysis
TERT-RPE1 [5] = assay: Antiproliferative activity against BRCA1 knockout human RPE-1 cells assessed as fold change in rucaparib IC50 by CellTiter-Glo assay; format: functional
TERT-RPE1 [6] = assay: Antiproliferative activity against BRCA1 knockout human RPE-1 cells assessed as inhibition of cell growth by CellTiter-Glo assay; format: functional, cell-based
TERT-RPE1 [7] = assay: Antiproliferative activity against P53 knockout human RPE-1 cells assessed as inhibition of cell growth by CellTiter-Glo assay; format: functional, cell-based
TERT-RPE1 [8] = assay: Antiproliferative activity against P53 and BRCA1 knockout human RPE-1 cells assessed as inhibition of cell growth by CellTiter-Glo assay; format: functional, cell-based
TOV21G = assay: Antiproliferative activity against HR knockout human TOV-21G cells assessed as fold change in olaparib IC50 by CellTiter-Glo assay; format: functional
[9] = Antiproliferative activity against human MDA-1986 cells assessed as inhibition of cell growth incubated for 6 days by CellTiter-Glo assay; format: functional, cell-based; conditions: MDA1986, 144 h
TERT-RPE1 [10] = assay: Antiproliferative activity against human RPE-1 cells expressing wild type BRCA1 assessed as inhibition of cell growth by CellTiter-Glo assay; format: functional, cell-based
DNA polymerase theta [11] = target: T1, DNA polymerase theta; assay: Inhibition of POLQ (unknown origin) (1 to 987 residues) using […] as substrate incubated for 30 mins in presence of ATP relative to control
A549 = assay: Antiproliferative activity against human A549 cells assessed as inhibition of cell growth incubated for 6 days by CellTiter-Glo assay; format: functional, cell-based; conditions: A549, 144 h
HCT-116 = assay: Antiproliferative activity against human HCT-116 cells assessed as inhibition of cell growth incubated for 6 days by CellTiter-Glo assay; format: functional, cell-based; conditions: HCT-116, 144 h
PC-3 = assay: Antiproliferative activity against human PC-3 cells assessed as inhibition of cell growth incubated for 6 days by CellTiter-Glo assay; format: functional, cell-based; conditions: PC-3, 144 h
MCF7 = assay: Antiproliferative activity against human MCF7 cells assessed as inhibition of cell growth incubated for 6 days by CellTiter-Glo assay; format: functional, cell-based; conditions: MCF7, 144 h
DNA polymerase theta [12] = target: T1, DNA polymerase theta; assay: Inhibition of POLQ PD (unknown origin) (1819 to 2590 residues) incubated for 15 mins by fluorescence based analysis
DNA polymerase theta [13] = target: T1, DNA polymerase theta; assay: Inhibition of POLQ PD (unknown origin) (1819 to 2590 residues) incubated for 15 mins by luminescence based analysis

T1 sequence (O75417 whole entry, the tested form may be a part): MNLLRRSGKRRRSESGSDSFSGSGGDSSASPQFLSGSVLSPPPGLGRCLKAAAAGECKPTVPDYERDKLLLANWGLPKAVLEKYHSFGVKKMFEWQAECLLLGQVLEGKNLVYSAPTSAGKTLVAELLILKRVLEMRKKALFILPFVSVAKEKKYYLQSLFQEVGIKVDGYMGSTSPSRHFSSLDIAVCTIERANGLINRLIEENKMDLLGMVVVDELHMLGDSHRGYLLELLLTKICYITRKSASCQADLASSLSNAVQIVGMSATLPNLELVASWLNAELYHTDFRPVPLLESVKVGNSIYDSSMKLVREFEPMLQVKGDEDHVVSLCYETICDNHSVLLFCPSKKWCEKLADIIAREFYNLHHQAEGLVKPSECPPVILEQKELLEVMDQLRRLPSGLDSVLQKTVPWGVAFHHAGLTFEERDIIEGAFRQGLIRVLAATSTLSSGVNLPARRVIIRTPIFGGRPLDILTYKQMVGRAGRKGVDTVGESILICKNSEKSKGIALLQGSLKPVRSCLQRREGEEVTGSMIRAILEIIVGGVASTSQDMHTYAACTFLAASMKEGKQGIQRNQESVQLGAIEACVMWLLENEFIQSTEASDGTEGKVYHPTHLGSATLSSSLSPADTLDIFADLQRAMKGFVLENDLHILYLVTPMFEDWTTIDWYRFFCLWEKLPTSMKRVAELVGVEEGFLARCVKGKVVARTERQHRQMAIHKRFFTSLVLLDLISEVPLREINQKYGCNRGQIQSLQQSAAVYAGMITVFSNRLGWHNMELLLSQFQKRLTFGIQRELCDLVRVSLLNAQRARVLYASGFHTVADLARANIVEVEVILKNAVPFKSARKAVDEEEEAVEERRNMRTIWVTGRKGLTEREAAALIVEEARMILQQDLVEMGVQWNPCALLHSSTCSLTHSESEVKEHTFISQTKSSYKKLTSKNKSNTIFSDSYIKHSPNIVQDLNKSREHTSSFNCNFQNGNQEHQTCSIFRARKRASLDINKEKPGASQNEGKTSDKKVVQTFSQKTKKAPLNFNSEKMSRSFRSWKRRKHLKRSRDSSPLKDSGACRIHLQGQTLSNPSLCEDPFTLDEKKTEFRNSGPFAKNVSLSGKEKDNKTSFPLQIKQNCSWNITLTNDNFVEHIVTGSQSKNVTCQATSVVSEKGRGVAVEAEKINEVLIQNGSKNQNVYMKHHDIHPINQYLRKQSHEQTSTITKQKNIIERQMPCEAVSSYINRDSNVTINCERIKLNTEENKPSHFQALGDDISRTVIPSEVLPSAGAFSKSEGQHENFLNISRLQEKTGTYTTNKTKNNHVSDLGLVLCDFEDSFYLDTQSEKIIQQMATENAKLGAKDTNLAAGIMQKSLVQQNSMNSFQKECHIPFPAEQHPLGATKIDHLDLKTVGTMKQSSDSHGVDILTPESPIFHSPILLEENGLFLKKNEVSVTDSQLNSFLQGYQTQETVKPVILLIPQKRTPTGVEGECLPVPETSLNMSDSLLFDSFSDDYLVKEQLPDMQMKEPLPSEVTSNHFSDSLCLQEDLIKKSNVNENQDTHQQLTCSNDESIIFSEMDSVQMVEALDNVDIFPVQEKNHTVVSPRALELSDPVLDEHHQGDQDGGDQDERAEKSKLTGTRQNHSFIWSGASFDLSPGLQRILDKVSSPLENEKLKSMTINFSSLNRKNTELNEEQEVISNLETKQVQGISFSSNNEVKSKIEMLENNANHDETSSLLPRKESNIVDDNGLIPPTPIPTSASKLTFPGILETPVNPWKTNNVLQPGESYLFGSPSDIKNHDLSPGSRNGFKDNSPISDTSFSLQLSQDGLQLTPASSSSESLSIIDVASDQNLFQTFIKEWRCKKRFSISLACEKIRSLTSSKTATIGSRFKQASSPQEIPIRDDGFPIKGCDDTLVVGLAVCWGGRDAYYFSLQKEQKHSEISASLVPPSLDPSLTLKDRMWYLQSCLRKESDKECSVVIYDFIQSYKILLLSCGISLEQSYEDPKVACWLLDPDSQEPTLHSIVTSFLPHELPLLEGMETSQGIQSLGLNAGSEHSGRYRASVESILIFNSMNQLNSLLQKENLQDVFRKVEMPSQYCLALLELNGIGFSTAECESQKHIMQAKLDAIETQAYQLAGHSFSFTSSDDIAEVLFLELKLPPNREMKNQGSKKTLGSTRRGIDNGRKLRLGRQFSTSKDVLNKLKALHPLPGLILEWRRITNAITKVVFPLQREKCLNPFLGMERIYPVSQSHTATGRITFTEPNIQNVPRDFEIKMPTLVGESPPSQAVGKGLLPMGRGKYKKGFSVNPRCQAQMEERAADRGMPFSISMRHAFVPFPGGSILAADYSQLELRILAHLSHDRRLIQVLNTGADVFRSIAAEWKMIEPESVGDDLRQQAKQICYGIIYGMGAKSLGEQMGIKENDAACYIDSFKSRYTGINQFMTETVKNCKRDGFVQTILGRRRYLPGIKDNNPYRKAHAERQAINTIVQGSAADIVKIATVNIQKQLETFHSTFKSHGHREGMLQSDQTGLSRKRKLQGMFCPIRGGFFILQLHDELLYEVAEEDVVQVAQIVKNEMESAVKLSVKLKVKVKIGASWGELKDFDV

SMILES: CN(C(=O)CNc1nc(C(F)(F)F)cc(C(F)(F)F)c1C#N)c1ccc(F)cc1
- IC50 (DNA polymerase theta [1]): < 200 nM

SMILES: Cc1cccc(N(C)C(=O)[C@@H]2CCCN2c2nc(C)cc(C(F)(F)F)c2C#N)c1
- IC50 (DNA polymerase theta [2]): < 200 nM

SMILES: COc1ccccc1-c1cc(C)ncc1C(=O)Nc1nnc(OCc2ccc(Cl)cn2)s1
- IC50 (DNA polymerase theta [4]): ≤ 200 nM

SMILES: CO[C@@H]1[C@@H](OC(N)=O)[C@@H](O)[C@H](Oc2ccc3c(O)c(NC(=O)c4ccc(O)c(CC=C(C)C)c4)c(=O)oc3c2C)OC1(C)C [NOVOBIOCIN]
- fold change (FC) (TERT-RPE1 [5]): 20
- IC50 (TERT-RPE1 [6]): 86000 nM
- IC50 (TERT-RPE1 [7]): 358000 nM
- IC50 (TERT-RPE1 [8]): 97200 nM
- fold change (FC) (TOV21G): 40

SMILES: Cc1c(OC2CCN(C)CC2)ccc2cc(NC(=O)Nc3ccc(C(F)(F)F)cc3)c(=O)oc12
- IC50 (TERT-RPE1 [6]): 160 nM
- IC50 [9]: 900 nM
- IC50 (TERT-RPE1 [10]): 450 nM
- inhibition (DNA polymerase theta [11]): 50%
- IC50 (A549): 130 nM
- IC50 (HCT-116): 800 nM
- IC50 (PC-3): 60 nM
- IC50 (MCF7): 460 nM

SMILES: Cc1nc(NCC(=O)N(C)c2ccccc2)c(C#N)c(C)c1Cl
- IC50 (DNA polymerase theta [2]): < 200 nM

SMILES: COc1cccc(-c2cc(C(=O)N[C@H]3CC[C@H](c4ccc(OC5CCNCC5)cc4)CC3)ccc2OC)c1
- inhibition (DNA polymerase theta [11]): 70%

SMILES: Cc1cc(C(F)(F)F)cc(N2C(=O)OC[C@H]2c2nc(Cl)cn2-c2ccc(F)c(Cl)c2)n1
- IC50 (DNA polymerase theta [12]): 5 nM

SMILES: Cc1nc(NCc2nccn2-c2ccccc2)c(C#N)c(C)c1Cl
- IC50 (DNA polymerase theta [2]): < 200 nM

SMILES: CN(C(=O)[C@@H]1CCCN1c1cc(C(F)(F)F)ccn1)c1ccc(F)cc1
- IC50 (DNA polymerase theta [2]): < 200 nM

SMILES: CN(C(=O)[C@@H]1CCCN1c1cc(C(F)(F)F)cc(C(F)(F)F)n1)c1ccc(F)cc1
- IC50 (DNA polymerase theta [13]): ≤ 200 nM
- IC50 (DNA polymerase theta [12]): ≤ 200 nM

Second part, the compound after the results:

- IC50 (DNA polymerase theta [1]): < 200 nM
SMILES: N#Cc1c(C(F)(F)F)cc(C(F)(F)F)nc1NCc1nccn1-c1ccc(F)cc1

- IC50 (DNA polymerase theta [3]): 7 nM
SMILES: Cc1cc(-c2nc(NC(=O)N[C@H]3CCCNC3)cs2)ccc1OC[C@]1(C)CCOC1

- IC50 (DNA polymerase theta [4]): ≤ 200 nM
SMILES: COc1cnc(Cl)cc1-c1cc(C)ncc1C(=O)Nc1nnc(OCc2ccc(Cl)cn2)s1

- IC50 (DNA polymerase theta [3]): 2 nM
SMILES: Cc1ccc(NC(=O)Nc2cncc(-c3ccc(OCC4(C)CCOC4)c(C)c3)n2)cn1 (centres undefined)

- IC50 (DNA polymerase theta [13]): 200 nM
- IC50 (DNA polymerase theta [12]): 200 nM
SMILES: Cc1nc(SCC(=O)N(C)c2ccccc2)c(C#N)c(C)c1Cl
